Measured values: patent US11787781B2, “Inhibiting ataxia telangiectasia and RAD3-related protein (ATR)” (Celator Pharmaceuticals, Inc., priority 2016, dated 2023)
Like-named read-outs stand apart in the source and are kept apart here.

Tests used:
[1] = Loading of ATR inhibitors into TEA-SOS liposomes and liposome characterization; assay type: physicochemical
Procedure: Sodium sucrose octasulfate (equivalent weight 144.8) is a sodium salt of sucrose derivate in which all hydroxyl groups have formed sulfuric acid esters. Sixty gram of sucrose octasulfate (SOS) sodium salt were dissolved in 150 ml of di water, heated with shaking (swirling) of a 50° C. water bath. The solution was passed through a column packed with sulfonated polystyrene divinylbenzene copolymer cation exchange resin beads (Dowex 50Wx8-100-200 mesh, Dow Chemical Co.). […] The eluent was monitored using a conductivity detector. The SOS fraction was collected corresponding to conductivity peak and immediately titrated with neat triethylamine (TEA) solution to pH 6-6.5. The solution was analyzed for residual sodium by potentiometry using a sodium-sensitive electrode and for SOS concentration using a refractometer. The solution having residual sodium less than 0.25% was diluted with di water to final SOS concentration 1.1 M and then sterile-filtered using Millipore 0.22 μm Steri-Top filter.
Cholesterol (Chol) was purchased from Avanti Polar Lipids, Alabaster, Ala., USA, hydrogenated soy phosphocholine (HSPC) and methoxy-poly(ethylene glycol)-1,2-distearoyl-sn-glyceryl (PEG2000-DSG) were obtained from Lipoid GmbH, Ludwigshafen, Germany.
Chol, HSPC and PEG2000-DSG were co-dissolved in 100% ethanol (200-proof, Sigma cat #: 459828) at a molar ratio of 3:2:0.15 at 65° C. The solution of TEA-SOS (10 times the volume of added ethanol) was mixed with the lipid solution at 60-65° C. and stirred at this temperature until a homogeneous milky suspension of multilamellar vesicles was formed. This suspension was extruded 3 times through 5 stacked polycarbonate track-etched filters (Corning Nuclepore) with the pore size of 100 nm using argon pressure extruder (Lipex Biomembranes) at 60-65° C., and resulting unilamellar liposomes were quickly chilled in ice and then stored at 4-6° C. before use. Concentration of phospholipids was measured by phosphate assay and particle diameter was recorded on a Malvern Nanosizer.
Prior to drug loading, the TEA-SOS gradient was created by removing excess of un-trapped TEA-SOS using gel-chromatography (Sepharose CL-4B, Pharmacia). Osmolarity of liposomes was balanced using 50% dextrose solution. Final dextrose concentration was 15%.
ATR inhibitors were dissolved in 15% dextrose solutions in di water by titration with 1 M HCl and heating at 45° C. and then filtered with 0.2 micron NALGENE 13 mm Syringe Filters. Drug concentration in the solution was detected by HPLC. […]
The liposome-drug mixture was incubated with occasional agitation for 30 minutes at 65° C. The incubation mixture was quickly cooled down and incubated for 10 minutes at 0° C., then allowed to attain ambient temperature. Un-encapsulated drug was removed by gel chromatography on Sephadex G-25 (Amersham Pharmacia) eluted with HBS-6.5 buffer (5 mM 2-(4-(2-hydroxyethyl)-piperazino)-ethylsulfonic acid (HEPES), 144 mM NaCl, pH 6.5). Liposome fractions eluted in the void volume were combined, sterilized by 0.2 micron filtration, and stored at 4-6° C. before use. The liposomes were characterized by lipid concentration, drug concentration, and particle size (Table 2).

[2] = target: PIM1 (Homo sapiens (Human), UniProt P11309); assay: Broad kinase panel screening; assay type: biochemical
Excerpt: (§1) Example 16: Broad Kinase Panel Screening (359)
(§2) Major hits out of 359 were: ALK, ARK, c-MER, CLK1, DYRK, GSK3a, GSK3b, FLT2, FLT3, MLK1, SIK2, TNIK, and YSK4.

[3] = target: CLK4 (Homo sapiens (Human), UniProt Q9HAZ1); assay: Broad kinase panel screening; assay type: biochemical
Excerpt: as §1, §2

[4] = target: PKD2/PRKD2 (Homo sapiens (Human), UniProt Q9BZL6); assay: Broad kinase panel screening; assay type: biochemical
Excerpt: as §1, §2

[5] = target: SIK2 (Homo sapiens (Human), UniProt Q9H0K1); assay: Broad kinase panel screening; assay type: biochemical
Excerpt: as §1, §2

[6] = target: ALK2/ACVR1 (Homo sapiens (Human), UniProt Q04771); assay: Broad kinase panel screening; assay type: biochemical
Excerpt: as §1, §2

[7] = target: MLK1/MAP3K9 (Homo sapiens (Human), UniProt P80192); assay: Broad kinase panel screening; assay type: biochemical
Excerpt: as §1, §2

[8] = target: MLK2/MAP3K10 (Homo sapiens (Human), UniProt Q02779); assay: Broad kinase panel screening; assay type: biochemical
Excerpt: as §1, §2

[9] = target: MLK3/MAP3K11 (Homo sapiens (Human), UniProt Q16584); assay: Broad kinase panel screening; assay type: biochemical
Excerpt: as §1, §2

[10] = target: GSK3b (Homo sapiens (Human), UniProt P49841); assay: Broad kinase panel screening; assay type: biochemical
Excerpt: as §1, §2

[11] = target: RET (Homo sapiens (Human), UniProt P07949); assay: Broad kinase panel screening; assay type: biochemical
Excerpt: as §1, §2

[12] = target: FLT4/VEGFR3 (Homo sapiens (Human), UniProt P35916); assay: Broad kinase panel screening; assay type: biochemical
Excerpt: as §1, §2

[13] = target: TNIK (Homo sapiens (Human), UniProt Q9UKE5); assay: Broad kinase panel screening; assay type: biochemical
Excerpt: as §1, §2

[14] = target: ALK1/ACVRL1 (Homo sapiens (Human), UniProt P37023); assay: Broad kinase panel screening; assay type: biochemical
Excerpt: as §1, §2

[15] = target: ARK5/NUAK1 (Homo sapiens (Human), UniProt O60285); assay: Broad kinase panel screening; assay type: biochemical
Excerpt: as §1, §2

[16] = target: YSK4/MAP3K19 (Homo sapiens (Human), UniProt Q56UN5); assay: Broad kinase panel screening; assay type: biochemical
Excerpt: as §1, §2

[17] = target: PKCmu/PRKD1 (Homo sapiens (Human), UniProt Q15139); assay: Broad kinase panel screening; assay type: biochemical
Excerpt: as §1, §2

[18] = target: GSK3a (Homo sapiens (Human), UniProt P49840); assay: Broad kinase panel screening; assay type: biochemical
Excerpt: as §1, §2

[19] = target: DYRK2 (Homo sapiens (Human), UniProt Q92630); assay: Broad kinase panel screening; assay type: biochemical
Excerpt: as §1, §2

Chain of GSK3a (P49840 whole entry, species assumed): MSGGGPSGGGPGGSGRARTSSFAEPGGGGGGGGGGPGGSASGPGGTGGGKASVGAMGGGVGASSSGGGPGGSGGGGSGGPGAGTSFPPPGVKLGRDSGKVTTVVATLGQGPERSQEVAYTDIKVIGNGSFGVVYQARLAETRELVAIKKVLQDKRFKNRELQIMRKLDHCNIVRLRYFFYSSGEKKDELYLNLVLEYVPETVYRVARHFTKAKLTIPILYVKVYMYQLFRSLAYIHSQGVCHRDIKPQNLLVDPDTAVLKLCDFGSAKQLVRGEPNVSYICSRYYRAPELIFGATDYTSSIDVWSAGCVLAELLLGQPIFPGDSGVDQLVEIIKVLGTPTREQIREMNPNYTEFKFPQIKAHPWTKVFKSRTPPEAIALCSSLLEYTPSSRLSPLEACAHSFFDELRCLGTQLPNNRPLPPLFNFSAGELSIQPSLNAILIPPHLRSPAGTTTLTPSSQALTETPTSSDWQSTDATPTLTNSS
Chain of GSK3b (P49841 whole entry, species assumed): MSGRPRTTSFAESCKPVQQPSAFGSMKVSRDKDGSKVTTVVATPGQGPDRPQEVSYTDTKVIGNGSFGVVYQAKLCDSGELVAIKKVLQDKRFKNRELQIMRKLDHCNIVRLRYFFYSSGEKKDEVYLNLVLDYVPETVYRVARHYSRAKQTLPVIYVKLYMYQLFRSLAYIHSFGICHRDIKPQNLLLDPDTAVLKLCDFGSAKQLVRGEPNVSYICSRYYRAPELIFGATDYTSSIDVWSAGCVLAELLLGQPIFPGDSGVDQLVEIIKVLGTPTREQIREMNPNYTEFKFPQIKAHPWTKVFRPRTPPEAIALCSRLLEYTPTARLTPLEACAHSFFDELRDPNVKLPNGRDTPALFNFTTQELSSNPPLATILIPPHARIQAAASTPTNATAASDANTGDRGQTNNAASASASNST
Chain of PIM1 (P11309 whole entry, species assumed): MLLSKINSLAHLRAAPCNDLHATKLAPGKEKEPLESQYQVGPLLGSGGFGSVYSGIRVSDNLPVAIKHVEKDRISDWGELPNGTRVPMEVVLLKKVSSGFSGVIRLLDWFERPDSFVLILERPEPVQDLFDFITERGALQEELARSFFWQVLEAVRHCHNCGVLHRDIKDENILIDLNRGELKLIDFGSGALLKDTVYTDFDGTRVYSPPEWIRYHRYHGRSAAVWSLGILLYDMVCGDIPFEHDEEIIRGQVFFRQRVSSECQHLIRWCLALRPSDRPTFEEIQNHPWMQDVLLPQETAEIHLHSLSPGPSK
Chain of MLK3/MAP3K11 (Q16584 whole entry): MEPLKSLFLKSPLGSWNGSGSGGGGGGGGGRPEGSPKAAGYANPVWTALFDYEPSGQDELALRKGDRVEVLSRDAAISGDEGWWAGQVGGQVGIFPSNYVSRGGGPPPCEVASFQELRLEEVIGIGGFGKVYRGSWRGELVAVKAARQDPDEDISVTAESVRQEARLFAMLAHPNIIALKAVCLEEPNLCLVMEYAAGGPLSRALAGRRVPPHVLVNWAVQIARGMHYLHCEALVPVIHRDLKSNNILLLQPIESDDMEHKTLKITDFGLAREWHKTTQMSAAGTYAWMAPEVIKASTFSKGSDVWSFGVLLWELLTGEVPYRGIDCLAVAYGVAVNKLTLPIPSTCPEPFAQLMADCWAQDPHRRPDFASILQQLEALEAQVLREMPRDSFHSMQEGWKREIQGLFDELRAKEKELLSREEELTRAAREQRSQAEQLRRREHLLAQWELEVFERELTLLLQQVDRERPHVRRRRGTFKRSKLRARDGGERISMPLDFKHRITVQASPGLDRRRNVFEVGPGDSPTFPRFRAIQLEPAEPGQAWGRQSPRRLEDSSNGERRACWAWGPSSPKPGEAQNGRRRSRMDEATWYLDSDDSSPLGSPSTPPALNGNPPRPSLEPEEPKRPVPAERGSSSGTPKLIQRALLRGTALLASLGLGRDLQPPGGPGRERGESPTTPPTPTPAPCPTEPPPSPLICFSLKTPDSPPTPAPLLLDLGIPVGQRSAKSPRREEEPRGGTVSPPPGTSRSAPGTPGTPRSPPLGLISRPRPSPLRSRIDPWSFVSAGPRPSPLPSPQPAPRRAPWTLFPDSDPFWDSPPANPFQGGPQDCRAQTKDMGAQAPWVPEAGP
Chain of CLK4 (Q9HAZ1 whole entry, species assumed): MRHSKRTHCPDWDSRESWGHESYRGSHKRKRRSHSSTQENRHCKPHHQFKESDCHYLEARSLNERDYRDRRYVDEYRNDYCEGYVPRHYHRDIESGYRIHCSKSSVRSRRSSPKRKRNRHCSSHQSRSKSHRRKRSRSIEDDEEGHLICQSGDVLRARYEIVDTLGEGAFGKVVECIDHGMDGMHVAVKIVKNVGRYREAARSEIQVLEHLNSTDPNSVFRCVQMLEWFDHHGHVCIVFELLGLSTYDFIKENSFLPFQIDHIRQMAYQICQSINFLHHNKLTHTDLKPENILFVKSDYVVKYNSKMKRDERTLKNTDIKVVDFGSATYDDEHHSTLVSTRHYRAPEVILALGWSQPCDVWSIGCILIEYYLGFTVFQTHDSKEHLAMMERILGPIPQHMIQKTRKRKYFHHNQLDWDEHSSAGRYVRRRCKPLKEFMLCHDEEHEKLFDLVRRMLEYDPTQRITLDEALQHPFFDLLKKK
Chain of YSK4/MAP3K19 (Q56UN5 whole entry): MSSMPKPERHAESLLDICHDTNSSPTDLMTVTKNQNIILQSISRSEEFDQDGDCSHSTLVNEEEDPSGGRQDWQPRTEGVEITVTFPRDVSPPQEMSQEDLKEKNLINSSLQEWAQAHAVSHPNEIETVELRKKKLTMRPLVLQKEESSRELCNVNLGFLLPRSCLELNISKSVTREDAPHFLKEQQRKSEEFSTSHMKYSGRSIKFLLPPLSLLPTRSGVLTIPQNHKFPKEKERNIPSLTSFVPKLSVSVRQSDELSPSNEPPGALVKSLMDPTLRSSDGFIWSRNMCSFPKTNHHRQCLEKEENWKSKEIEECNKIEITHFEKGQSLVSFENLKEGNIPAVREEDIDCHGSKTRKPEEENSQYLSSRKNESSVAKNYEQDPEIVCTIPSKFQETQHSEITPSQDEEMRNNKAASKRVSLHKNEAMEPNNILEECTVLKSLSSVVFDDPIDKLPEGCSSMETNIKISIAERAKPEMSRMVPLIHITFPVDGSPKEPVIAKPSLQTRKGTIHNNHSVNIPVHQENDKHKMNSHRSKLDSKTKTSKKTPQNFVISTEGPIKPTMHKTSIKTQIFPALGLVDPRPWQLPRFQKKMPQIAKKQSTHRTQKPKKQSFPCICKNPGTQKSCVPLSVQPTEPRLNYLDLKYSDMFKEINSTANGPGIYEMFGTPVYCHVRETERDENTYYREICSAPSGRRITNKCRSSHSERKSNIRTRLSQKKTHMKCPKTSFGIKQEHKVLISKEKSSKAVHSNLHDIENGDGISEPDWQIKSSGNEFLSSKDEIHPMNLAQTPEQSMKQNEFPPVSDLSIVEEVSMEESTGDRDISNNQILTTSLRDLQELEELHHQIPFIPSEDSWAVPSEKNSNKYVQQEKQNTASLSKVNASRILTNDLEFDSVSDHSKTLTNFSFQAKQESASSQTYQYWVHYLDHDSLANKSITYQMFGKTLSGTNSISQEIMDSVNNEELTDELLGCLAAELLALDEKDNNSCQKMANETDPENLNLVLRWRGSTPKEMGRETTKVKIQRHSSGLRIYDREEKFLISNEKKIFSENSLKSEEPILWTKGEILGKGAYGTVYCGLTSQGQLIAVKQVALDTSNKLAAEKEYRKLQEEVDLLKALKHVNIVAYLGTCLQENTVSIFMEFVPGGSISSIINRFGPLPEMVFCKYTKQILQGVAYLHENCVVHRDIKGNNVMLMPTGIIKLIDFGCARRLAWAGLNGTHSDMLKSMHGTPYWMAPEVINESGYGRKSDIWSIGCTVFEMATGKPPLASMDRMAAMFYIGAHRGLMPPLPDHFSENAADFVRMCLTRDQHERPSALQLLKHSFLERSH
Chain of DYRK2 (Q92630 whole entry, species assumed): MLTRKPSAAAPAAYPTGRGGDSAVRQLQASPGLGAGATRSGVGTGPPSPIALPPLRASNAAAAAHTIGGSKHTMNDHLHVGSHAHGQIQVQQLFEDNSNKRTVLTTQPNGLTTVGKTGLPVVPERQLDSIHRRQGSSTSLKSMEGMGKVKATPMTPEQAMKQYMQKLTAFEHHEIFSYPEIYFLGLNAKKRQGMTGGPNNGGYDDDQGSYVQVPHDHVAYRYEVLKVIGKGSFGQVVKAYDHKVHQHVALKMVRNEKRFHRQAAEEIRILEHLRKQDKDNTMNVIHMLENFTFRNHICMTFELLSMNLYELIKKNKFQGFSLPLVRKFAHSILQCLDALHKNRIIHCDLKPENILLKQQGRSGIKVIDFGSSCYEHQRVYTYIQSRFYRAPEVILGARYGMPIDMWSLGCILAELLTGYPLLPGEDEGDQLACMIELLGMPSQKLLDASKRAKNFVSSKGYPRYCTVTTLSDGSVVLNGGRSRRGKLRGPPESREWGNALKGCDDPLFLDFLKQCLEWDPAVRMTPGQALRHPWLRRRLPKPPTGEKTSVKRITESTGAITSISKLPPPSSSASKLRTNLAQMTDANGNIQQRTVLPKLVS
Chain of ALK1/ACVRL1 (P37023 22-503): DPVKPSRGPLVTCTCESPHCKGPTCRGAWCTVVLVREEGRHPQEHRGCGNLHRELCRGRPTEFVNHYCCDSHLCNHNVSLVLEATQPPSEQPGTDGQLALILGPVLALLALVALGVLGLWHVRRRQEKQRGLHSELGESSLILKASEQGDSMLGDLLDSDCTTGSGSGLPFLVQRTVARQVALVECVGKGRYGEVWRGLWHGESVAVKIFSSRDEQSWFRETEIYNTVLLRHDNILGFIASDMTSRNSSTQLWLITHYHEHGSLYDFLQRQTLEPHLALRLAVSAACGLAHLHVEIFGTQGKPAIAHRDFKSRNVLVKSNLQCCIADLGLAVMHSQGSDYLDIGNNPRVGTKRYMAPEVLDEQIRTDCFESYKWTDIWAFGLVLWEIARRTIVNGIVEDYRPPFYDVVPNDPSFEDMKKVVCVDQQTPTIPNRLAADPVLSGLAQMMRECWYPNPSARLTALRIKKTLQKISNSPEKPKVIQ

Loading efficiency (%) ([1]; TEA-SOS liposomes, Compound 1 at ratio before loading 379): 84 ± 8% | Drug/lipid ratio after loading ([1]; TEA-SOS liposomes, input ratio before loading (Compound 1: 379)): 619 ± 110 | Liposome size, (mean ± SD) nm ([1]; liposomes loaded with the ATR inhibitor): 120 ± 29 nm | IC50 ([2]; read-out: IC50 nM): 72.6 nM | IC50 ([2]; read-out: IC50): 72.6 nM | IC50 [3]: 88.6 nM | IC50 [4]: 157 nM | IC50 [5]: 149 nM | IC50 [6]: 16.6 nM | IC50 [7]: 11.3 nM | IC50 [8]: 9.58 nM | IC50 ([9]; read-out: IC50 nM): 5.9 nM | IC50 ([9]; read-out: IC50): 5.9 nM | IC50 ([10]; read-out: IC50 nM): 63 nM | IC50 ([10]; read-out: IC50): 63 nM | IC50 [11]: 77.4 nM | IC50 [12]: 63.4 nM | IC50 [13]: 110 nM | IC50 [14]: 35.7 nM | IC50 [15]: 16.8 nM | IC50 [16]: 29.2 nM | IC50 [17]: 134 nM | IC50 ([18]; read-out: IC50 nM): 5.73 nM | IC50 ([18]; read-out: IC50): 5.73 nM | IC50 [19]: 71.8 nM
Compound: CN(C)CCC1CCN(CCS(=O)(=O)c2ccc(-c3cnc(N)c(C(=O)Nc4ccccc4)n3)cc2)CC1 [Compound 5, 3-amino-6-(4-((2-(4-(2-(dimethylamino)ethyl)piperidin-1-yl)ethyl)sulfonyl)phenyl)-N-phenylpyrazine-2-carboxamide]
